Results on 19 compounds are retold here after US20120065187A1 (ALCON RESEARCH, LTD, priority 2008, published 2012).

One may read the EC50 as the concentration at which the effect is half-maximal.

In test [1] the test system is Hartley VAF outbred guinea pigs. Description: Allergic conjunctivitis in passively sensitized guinea pigs (conjunctival EPO activity). Also on record: key: +: a ≦0.1% qd dose was statistically equivalent to dexamethasone with respect to reduction of EPO activity; −: the compound was statistically inferior to dexamethasone and not different than vehicle. The conditions noted are these: ≦0.1% qd topical, 1 hour prior to ovalbumin challenge; reduction of conjunctival EPO activity vs dexamethasone. It counts as in vivo. As to the method: (§1) Male Hartley VAF outbred guinea pigs were passively sensitized to ovalbumin by a single OD subconjunctival injection of undiluted guinea pig anti-ovalbumin antiserum 24 hours before OD topical challenge with 500 μg ovalbumin in saline. Control animals were injected with saline only and challenged with ovalbumin. To determine acute phase drug efficacy, 30 min after challenge animals were clinically scored by a masked observer for severity of signs of conjunctivitis based on a standard scale. Test compounds were administered topically 1 hour prior to challenge (QD protocol), or 1 hour prior to challenge and again 8 hours after challenge (BID protocol). Twenty-four hours after challenge, animals were euthanized and conjunctivae were harvested for determination of tissue eosinophil peroxidase (EPO) concentration as a marker of allergic inflammation. Homogenates of freshly collected tissues were prepared by shaking the tissues in 2 mL round-bottom tubes containing 0.5 mL of homogenization buffer (50 mM Tris HCl, pH 8.0, 6 mM KBr) and one 5-mm stainless steel bead on a Qiagen TissueLyser at 30 Hz for 5 min. Homogenates were frozen and thawed once, then centrifuged at 10,000 rpm for 5 min. EPO activity in supernatants was measured by reacting diluted homogenates with a solution of 6 mM o-phenylenediamine substrate and 8.8 mM H2O2 in homogenization buffer for 3 min. The reaction was stopped with 4M H2SO4 and absorbances were measured at […] on a spectrophotometric plate reader. Total EPO in samples was calculated from a standard curve of recombinant human EPO in each assay. EPO activity was normalized to total protein concentration (Pierce BCA assay) in supernatants. Background EPO activity was determined from the unsensitized, antigen-challenged control group. Percent inhibition was calculated from the sensitized, antigen-challenged, vehicle-treated control group in each experiment. Ovalbumin-injected animals dosed topically with 0.1% w/v dexamethasone (dex) served as positive control. Groups were compared by ANOVA with Dunnett's or Tukey's post-hoc tests where appropriate with significance assigned at the 95% confidence level.
(§2) The table below summarizes the results.

The next test has as its target T1, human H1 (Homo sapiens, UniProt P35367).
T1 construct: host or cells: CHO-K1
Description: In vitro histamine receptor cell-based assay (aequorin bioluminescence), H1 antagonism. The conditions noted are these: CHO-K1 cells expressing human H1 and aequorin; histamine at EC80; read-out: H1 Antagonist EC50. Summed up: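 Antagonism read as drop in aequorin luminescence after histamine challenge at a predetermined EC80, following 15 min compound pretreatment at room temperature. Cells: CHO-K1 carrying human H1, or H4 with Gα16; signal as AUC or amplitude, normalised to 10 μM diphenhydramine (H1) or JNJ7777120 (H4).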

The target in the next test is T2, human H4 (Homo sapiens, UniProt Q9H3N8).
T2 construct: host or cells: CHO-K1
Description: In vitro histamine receptor cell-based assay (aequorin bioluminescence), H4 antagonism. The conditions noted are these: CHO-K1 cells expressing human H4, aequorin and Gα16; histamine at EC80; read-out: H4 Antagonist EC50. Summed up:
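Antagonism read as loss of aequorin luminescence after histamine (EC80 final) addition, following 15 min room-temperature compound pretreatment of coelenterazine-h-loaded (5 μM) CHO-K1 cells co-expressing human H4 and Gα16. Efficacy given relative to 10 μM JNJ7777120; agonism excluded in separate no-histamine runs.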

Test [2] deals with Hartley VAF outbred guinea pigs. Description: Allergic conjunctivitis in passively sensitized guinea pigs (conjunctival EPO activity). It counts as in vivo. Also noted: key: +: a 0.01% bid dose was statistically equivalent to dexamethasone with respect to reduction of EPO activity; −: the compound was statistically inferior to dexamethasone and not different than vehicle. The conditions noted are these: reduction of conjunctival EPO activity vs dexamethasone; for BID activity: 0.01% bid topical, 1 hour prior to and 8 hours after ovalbumin challenge; for QD activity: ≦0.1% qd topical, 1 hour prior to ovalbumin challenge. The method, then: as §1, §2

T1 sequence (P35367 whole entry): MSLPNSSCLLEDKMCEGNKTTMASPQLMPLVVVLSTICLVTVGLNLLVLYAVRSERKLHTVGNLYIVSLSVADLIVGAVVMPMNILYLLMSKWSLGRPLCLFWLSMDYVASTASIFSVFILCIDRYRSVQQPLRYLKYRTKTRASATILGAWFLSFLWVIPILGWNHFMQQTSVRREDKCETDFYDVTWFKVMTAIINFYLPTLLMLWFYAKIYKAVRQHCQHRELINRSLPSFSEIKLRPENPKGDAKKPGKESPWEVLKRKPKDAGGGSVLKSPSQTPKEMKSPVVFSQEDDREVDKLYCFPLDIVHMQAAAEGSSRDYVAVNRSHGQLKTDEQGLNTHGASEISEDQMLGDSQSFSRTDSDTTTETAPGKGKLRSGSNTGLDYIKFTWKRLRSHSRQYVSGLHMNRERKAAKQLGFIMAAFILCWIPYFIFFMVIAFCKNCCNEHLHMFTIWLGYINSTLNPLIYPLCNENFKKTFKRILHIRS
T2 sequence (Q9H3N8 whole entry): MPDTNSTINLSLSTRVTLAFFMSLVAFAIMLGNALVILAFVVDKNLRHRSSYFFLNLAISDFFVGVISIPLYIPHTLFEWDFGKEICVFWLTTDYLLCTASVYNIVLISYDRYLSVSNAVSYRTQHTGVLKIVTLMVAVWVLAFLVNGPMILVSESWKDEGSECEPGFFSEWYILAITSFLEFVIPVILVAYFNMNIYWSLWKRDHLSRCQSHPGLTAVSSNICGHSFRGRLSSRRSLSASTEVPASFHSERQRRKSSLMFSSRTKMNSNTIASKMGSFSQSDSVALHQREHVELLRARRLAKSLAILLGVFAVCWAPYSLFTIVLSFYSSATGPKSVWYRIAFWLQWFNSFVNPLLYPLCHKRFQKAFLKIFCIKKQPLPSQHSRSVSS

`Clc1ccc2nc(N3CCNCC3)c3nnnn3c2c1` [Example 19, 8-Chloro-4-(piperazin-1-yl)tetrazolo[1,5-a]quinoxaline]: the QD activity entry in test [1] is “+”. In addition, the EC50 is greater than 10 µM on human H1 and less than 10 µM on human H4. In addition, the BID activity result in test [2] is given as “+”.

`FC(F)(F)c1ccc2nc(N3CCNCC3)c3nncn3c2c1` [Example 24, 4-(piperazin-1-yl)-8-(trifluoromethyl)-[1,2,4]triazolo[4,3-a]quinoxaline]: the QD activity result in test [1] is reported as “+”. The EC50 on human H1 was greater than 10 µM; at human H4, less than 10 µM.

On to `Cl.FC(F)(F)c1ccc2nc(N3CCNCC3)c3nnnn3c2c1` [Example 29, 4-(piperazin-1-yl)-8-(trifluoromethyl)tetrazolo[1,5-a]quinoxaline hydrochloride], for which the QD activity entry in test [1] is listed as “+”. The EC50 on human H1 was greater than 10 µM; at human H4, less than 10 µM. Also, the BID activity entry in test [2] is recorded as “+”.

With `FC(F)(F)c1cc2c(cc1Cl)nc(N1CCNCC1)c1nncn12` [Example 45, 7-Chloro-4-(piperazin-1-yl)-8-(trifluoromethyl)-[1,2,4]triazolo[4,3-a]quinoxaline], in test [1], the QD activity entry is “+”. Also, the half-maximal effective concentration (EC50) at human H1 is greater than 10 µM; on human H4, less than 10 µM.

Consider `Cc1nc2c3cc(C(F)(F)F)c(F)cc3nc(N3CCN(C)CC3)n2n1.Cl` [Example 124, 8-fluoro-2-methyl-5-(4-methylpiperazin-1-yl)-9-(trifluoromethyl)-[1,2,4]triazolo[1,5-c]quinazoline hydrochloride], for which the EC50 at human H1 was greater than 10 µM; on human H4 it was less than 10 µM. For the same compound, the QD activity result in test [2] was “−”.

In the case of `Cc1nc2c3cc(C(F)(F)F)c(F)cc3nc(N3CCNCC3)n2n1.Cl` [Example 125, 8-fluoro-2-methyl-5-(piperazin-1-yl)-9-(trifluoromethyl)-[1,2,4]triazolo[1,5-c]quinazoline hydrochloride], the values for the half-maximal effective concentration (EC50) on human H1 and at human H4 were greater than 10 µM and less than 10 µM, respectively. In addition, in test [2], the QD activity entry was “−”.

Turning to `Cc1nc2c3c(F)c(C(F)(F)F)ccc3nc(N3CCN(C)CC3)n2n1.Cl` [Example 126, 10-fluoro-2-methyl-5-(4-methylpiperazin-1-yl)-9-(trifluoromethyl)-[1,2,4]triazolo[1,5-c]quinazoline hydrochloride], the QD activity entry in test [1] was “+”. Also, the values for the 50% effective concentration (EC50) on human H1 and at human H4 were greater than 10 µM and less than 10 µM, respectively.

Consider `Cc1nc2c3cc(C(F)(F)F)cc(F)c3nc(N3CCN(C)CC3)n2n1.Cl` [Example 127, 7-fluoro-2-methyl-5-(4-methylpiperazin-1-yl)-9-(trifluoromethyl)-[1,2,4]triazolo[1,5-c]quinazoline hydrochloride], for which, in test [1], the QD activity result was “+”. For the same compound, the figures for the 50% effective concentration (EC50) at human H1 and on human H4 were greater than 10 µM and less than 10 µM, respectively.

As to `Cc1nc2c3cc(F)c(C(F)(F)F)cc3nc(N3CCN(C)CC3)n2n1.Cl` [Example 129, 9-fluoro-2-methyl-5-(4-methylpiperazin-1-yl)-8-(trifluoromethyl)-[1,2,4]triazolo[1,5-c]quinazoline hydrochloride], the values for the 50% effective concentration (EC50) at human H1 and at human H4 were greater than 10 µM and less than 10 µM, respectively. Besides, the QD activity result in test [2] is on record as “−”.

With `Cc1nc2c3cc(OC(F)(F)F)ccc3nc(N3CCN(C)CC3)n2n1.Cl` [Example 133, 2-methyl-5-(4-methylpiperazin-1-yl)-9-(trifluoromethoxy)-[1,2,4]triazolo[1,5-c]quinazoline hydrochloride], the EC50 on human H1 was greater than 10 µM; on human H4, less than 10 µM. Besides, the QD activity entry in test [2] is recorded as “−”.

As for `Cc1nc2c3cc(Br)ccc3nc(N3CCNCC3)n2n1` [Example 136, 9-bromo-2-methyl-5-(piperazin-1-yl)-[1,2,4]triazolo[1,5-c]quinazoline], the half-maximal effective concentration (EC50) was greater than 10 µM at human H1 and less than 10 µM at human H4. Further, the QD activity result in test [2] is “−”.

With `Cc1nc2c(N3CCN(C)CC3)nc3ccc(Cl)cc3c2o1` [Example 143, 8-chloro-2-methyl-4-(4-methylpiperazin-1-yl)oxazolo[4,5-c]quinoline], the EC50 at human H1 is less than 10 µM. For the same compound, on human H4, the 50% effective concentration (EC50) is less than 10 µM. Moreover, in test [2], the BID activity entry is recorded as “+” and the QD activity result was “−”.

For `Cc1nc2c(N3CCN(C)CC3)nc3cc(F)c(F)cc3c2o1` [Example 145, 7,8-difluoro-2-methyl-4-(4-methylpiperazin-1-yl)oxazolo[4,5-c]quinoline], the values for the half-maximal effective concentration (EC50) on human H1 and at human H4 were greater than 10 µM and less than 10 µM, respectively. Moreover, the QD activity entry in test [2] is “−”.

On to `CN1CCN(c2nc3ccc(Cl)cc3c3cn(C)nc23)CC1` [Example 150, 8-Chloro-2-methyl-4-(4-methylpiperazin-1-yl)-2H-pyrazolo[3,4-c]quinoline], for which the 50% effective concentration (EC50) was greater than 10 µM at human H1 and less than 10 µM on human H4. In test [2], the BID activity entry was “−”.

Take `Clc1ccc2nc(N3CCNCC3)c3n[nH]cc3c2c1` [Example 153, 8-Chloro-4-(piperazin-1-yl)-2H-pyrazolo[3,4-c]quinoline]: the half-maximal effective concentration (EC50) on human H1 and at human H4 was less than 10 µM throughout. Besides, the BID activity result in test [2] is on record as “−”.

With `CN1CCN(c2nc3ccc(Cl)cc3c3[nH]cnc23)CC1` [Example 160, 8-Chloro-4-(4-methylpiperazin-1-yl)-1H-imidazo[4,5-c]quinoline], the figures for the EC50 at human H1 and at human H4 were greater than 10 µM and less than 10 µM, respectively. Moreover, in test [2], the BID activity entry is “−”.

As to `Clc1ccc2nc(N3CCNCC3)c3nc[nH]c3c2c1` [Example 161, 8-Chloro-4-(piperazin-1-yl)-1H-imidazo[4,5-c]quinoline], the EC50 at human H1 and at human H4 was less than 10 µM each time. For the same compound, the BID activity result in test [2] is recorded as “+”.

Take `Cc1nc2c(N3CCN(C)CC3)nc3ccc(Cl)cc3n2n1` [Example 165, 8-chloro-2-methyl-4-(4-methylpiperazin-1-yl)-[1,2,4]triazolo[1,5-a]quinoxaline]: in test [1], the QD activity result was “+”. In addition, the concentration giving a half-maximal response (EC50) on human H1 and at human H4 was less than 10 µM throughout. Besides, the BID activity result in test [2] is reported as “+”.

As for `CN1CCN(c2nc3ccc(Cl)cc3c3conc23)CC1` [Example 166, 8-Chloro-4-(4-methylpiperazin-1-yl)isoxazolo[3,4-c]quinoline], the QD activity result in test [1] was “+”. In addition, the EC50 at human H1 was greater than 10 µM; at human H4, less than 10 µM. The BID activity result in test [2] is “+”.
